How the values were obtained:
[1] = tested on: Miapaca2, Panc-1, CAPAN1, CAPAN2, ASPC-1, SNU-213, SNU-324, or BXPC-3 cells; test: SRB assay, combined treatment with gossypol, phenformin and anti-cancer agent (triple combination); type: cell-based; details: 48 hours; compared with group given gossypol or phenformin alone; gossypol 2.5 or 5 μM, phenformin 100 μM, irinotecan 1 μM
Description: Specifically, Miapaca2, Panc-1, CAPAN1, CAPAN2, ASPC-1, SNU-213, SNU-324, or BXPC-3 cells were cultured. Each type of the cultured cells was treated with gossypol, phenformin, or irinotecan alone, or with a mixed drug thereof. […] As a control group, an untreated group with no drug treatment was used, and a relative cell proliferation level in each drug-treated group was expressed and calculated as a percentage as compared with the control group.

[2] = tested on: pancreatic cancer cell lines Miapaca-2, Panc-1, Aspc-1, SNU-410, SNU-324, Bxpc-3; test: SRB assay, inhibitory effect of gossypol or phenformin alone on growth of pancreatic cancer cells; type: cell-based; details: for inhibitory effect on cell proliferation: 48 hours after treatment with the drug, applied alone; for proliferation of the cancer cells: gossypol or phenformin added alone to each type of the pancreatic cancer cells, SRB assay
Description: (§3) Specifically, each type of various pancreatic cancer cell lines, Miapaca-2, Panc-1, Aspc-1, SNU-410, SNU-324, and Bxpc-3 cells, was cultured, during which each type of cells was inoculated into a 96-well plate at a density of 5,000 to 20,000 cells/well depending on an amplification period of culture time. After inoculation, gossypol or phenformin was added to each well and incubated in a CO2 incubator for 24 hours. Then, the cells were fixed by adding 50% (w/v) cooled trichloroacetic acid (TCA) to each well so as to become a final concentration of 10%. The supernatant other than the fixed cells was removed and the plate was washed about five times with tap water and then air dried. After drying, 0.4% (w/v) sulforhodamine B buffer solution containing 1% acetic acid was added to each well, and the plate was left to stand at room temperature for 10 minutes so that the cells were stained. After staining the cells, the plate was washed 5 times with 1% acetic acid to remove unstained dye, and then air dried. The stained dye was immobilized with 10 mM trizma base, and then absorbance was measured at 515 nm using a plate reader.

[3] = tested on: normal epithelial cell line IMR90; test: Annexin V-FITC/PI apoptosis detection by flow cytometry in normal cells; details: gossypol 10 μM, phenformin 100 μM, alone or mixed; 24, 48 and 72 hours
Description: First, the normal epithelial cell line IMR90 was cultured. Then, the cultured cells were treated with a single drug of gossypol 10 μM or phenformin 100 μM, or a mixed drug obtained by mixing them, and culture was performed for 24, 48, and 72 hours in total. The medium was removed from the cultured cells, and the cultured cells were washed twice with cold PBS. Centrifugation was performed at 1,400 rpm for 3 minutes, and then a binding buffer solution was added thereto at a concentration of 1×10^6 cells/mL. […] of the buffer solution was transferred to a 5-mL culture tube, and 5 μl of each of Annexin V-FITC and propidium iodide (PI) was added thereto. The tube was slowly vortexed to perform mixing, and then incubated for 15 minutes in a dark room at room temperature. After the incubation, a binding buffer solution (400 μl) was added thereto and a level of increase in cell death was checked by flow cytometry.

[4] = tested on: Miapaca2, Panc-1, or Aspc-1 cells; test: Intracellular ATP level (ATP Colorimetric/Fluorometric Analysis Kit); type: cell-based; details: gossypol 5 μM, phenformin 500 μM, alone or mixed; compared with control group with no drug treatment
Description: Then, an intracellular ATP level was checked with the ATP Colorimetric/Fluorometric Analysis Kit (BioVision, Milpitas, Calif., USA) according to the protocol provided by the manufacturer. The cultured cells were divided into 1×10^6 cells and 100 μl of ATP assay buffer was added thereto to dissolve the cells. Then, centrifugation was performed at 15,000×g for 2 minutes at 4° C., to separate only the supernatant. 2 to 50 μl of the separated supernatant was transferred to a 96-well plate, and then an ATP assay buffer was added to a final volume of 50 μl per well. Thereafter, an ATP reaction mixture containing 44 μl of ATP assay buffer, 2 μl of ATP probe, 2 μl of ATP converter, and 2 μl of developer mixture was added to the 96-well plate at 50 μl per well and mixing was performed.

[5] = tested on: Miapaca2 pancreatic cancer cell line; test: Pancreatic cancer mouse model (xenograft), tumor volume and weight; type: in vivo, Balb/c-nu mice; details: gossypol 40 mg/kg, phenformin 100 mg/kg, oral once a day, alone or combined; compared with solvent control
Description: (§1) First, 6- to 8-week-old Balb/c-nu mice (Central Lab. Animal, Highland Heights, Ky., USA) were prepared to make a pancreatic cancer mouse model. In addition, Miapaca2 pancreatic cancer cell line was cultured at 5.0×10^6 cells, and subcutaneously injected into the prepared mice with a 1-ml syringe. The mice were bred for 2 weeks, and divided into four groups in total, with each group containing 6 mice. The four groups were used as a solvent control group (10% DMSO, 40% PEG, 50% PBS), a group in which 40 mg/kg/100 μl of gossypol is administered alone, a group in which 100 mg/kg/100 μl of phenformin is administered alone, and a group in which gossypol+phenformin are administered in combination, respectively. To each mouse group was orally administered once a day the solvent or the drug, and the mice were bred in the same environment for a total of 61 days.
(§2) While breeding the mice, body weights and tumor sizes in each mouse group were checked every 3 days and averaged. A size of the initial tumor after injection of pancreatic cancer cells was determined using a caliper. A tumor volume was calculated using the following Equation 1.

[6] = Pancreatic cancer mouse model, body weight; details: oral once a day, 61 days; compared among experimental groups
Description: as §1, §2

[7] = tested on: Miapaca2, Panc-1, or Aspc-1 cells; details: applied alone at low drug concentration (gossypol 5 or 10 μM; phenformin 100 or 500 μM)
Description: as §3
Specifically, Miapaca2, Panc-1, or Aspc-1 cells were cultured. Each type of the cultured cells was treated with a mixed drug obtained by mixing gossypol 5 μM and phenformin 100 μM, or gossypol 10 μM and phenformin 500 μM, and cultured in the same manner.

Compound | proliferation level in pancreatic cancer cells [1] | inhibitory effect on cell proliferation [2] | proliferation of the cancer cells [2] | cell death over time in IMR90 normal cells [3] | intracellular ATP level [4] | level of increase in tumor volume [5] | body weights [6] | inhibition of cell growth [7]
CCc1c2c(nc3ccc(OC(=O)N4CCC(N5CCCCC5)CC4)cc13)-c1cc3c(c(=O)n1C2)COC(=O)[C@]3(O)CC [irinotecan] | significantly decreased | – | – | – | – | – | – | –
Cc1cc2c(C(C)C)c(O)c(O)c(C=O)c2c(O)c1-c1c(C)cc2c(C(C)C)c(O)c(O)c(C=O)c2c1O [gossypol] | – | complete inhibitory effect on cell proliferation | significantly inhibited | significant increase in cell death is not exhibited | decreased | somewhat decreased | not significantly different | significant inhibition of cell growth was not exhibited
[H]/N=C(/N)N/C(=N/[H])NCCc1ccccc1 [phenformin] | – | complete inhibitory effect on cell proliferation | significantly inhibited | significant increase in cell death is not exhibited | decreased | somewhat decreased | – | significant inhibition of cell growth was not exhibited

From patent publication US11123314B2 (NATIONAL CANCER CENTER, priority 2017, dated 2021)
